The test system of the experiment is tetrabenazine-induced hypothermia. The experiment is described as follows: In vivo tetrabenazine-induced hypothermia test. Conditions: oral gavage 60 minutes before TBZ i.p.; ICR male mice. As for the experimental part: FIG. 1 depicts in vivo tetrabenazine-induced hypothermia test. Imipramine (positive control), PDC-1421, 1st Fraction 10-19, 1st Fraction 33, 2nd Fraction-1 (the major components are polygalatenosides A/B/C), 2nd Fraction-3, TMCA, Polygalaxanthone III, Onjisaponin B, Sibiricose A5, 7-O-Methylmangiferin and Sibiricaxanthone B are administered as test substances and the temperature recovery (%) is documented as shown in figure. The around 70% of PDC-1421 in Example 1 are composed of sucroester (34%), saponin (18%) and xanthone (17%). Some active compounds of powder product in Example 1, polygalatenosides A/B/C (2nd fraction 1), ploygalaxanthone III, sibiricoses A5, and 7-O-methylmangiferin are also discovered through in vivo tetrabenazine-induced hypothermia test (one of rodent models for evaluating antidepressant-like activity in mice). Imipramine (positive control), PDC-1421, 1st Fraction 10-19, 1st Fraction 33, 2nd Fraction-1 (the major components are polygalatenosides A/B/C), 2nd Fraction-3, TMCA, Polygalaxanthone III, Onjisaponin B, Sibiricose A5, 7-O-Methylmangiferin and Sibiricaxanthone B were dissolved in water for injection (WFI) and administered by oral gavage. The dosing volume was 10 mL/kg. Test substances and vehicle (WFI) were administered by oral gavage to groups of 8 ICR male mice weighing 23±3 g 60 minutes before intraperitoneal injection of tetrabenazine (TBZ, 85 ma/kg). Body temperature was recorded before (0 min), and 60, 90 and 120 min after TBZ challenge.

Regarding `COc1cc2c(=O)c3c(O)c([C@@H]4O[C@H](CO)[C@@H](O)[C@H](O)[C@H]4O)c(O)cc3oc2cc1O` [7-O-methylmangiferin], the “activity in tetrabenazine-induced hypothermia test (temperature recovery)” value (“activity” for short) is recorded as “active”.

On to `COc1cc2c(=O)c3c(O)c([C@@H]4O[C@H](CO[C@@H]5OC[C@](O)(CO)[C@H]5O)[C@@H](O)[C@H](O)[C@H]4O)c(O)cc3oc2cc1O` [ploygalaxanthone III], for which the “activity” value is “active”.

As to `COc1cc(/C=C/C(=O)O[C@H]2[C@H](O)[C@@H](CO)O[C@@]2(CO)O[C@H]2O[C@H](CO)[C@@H](O)[C@H](O)[C@H]2O)ccc1O` [sibiricoses A5], the “activity” value is “active”.

For the origin of these results see patent publication US11554154B2, “Polygala extract for the treatment of major depressive disorder” (priority 2020, dated 2023).
